From the supplement of paper PMC10307832

Legend:
Assay in all cases: relative viability (nuclei count vs DMSO), 5 days (fraction); higher = more cells survive
[1] = compound: NCC(=O)Nc1ccc(-n2nc(C(F)(F)F)cc2-c2ccc3c(ccc4ccccc43)c2)cc1 + CS(=O)(=O)N1CCN(Cc2cc3nc(-c4cccc5[nH]ncc45)nc(N4CCOCC4)c3s2)CC1 [Pictilisib] (partner 1 µM)
Summary of the method: (§1)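 Cells from lung cancer lines were seeded into 1536-well plates and, one day later, dosed by pin tool. Treatments were either a single drug or a fixed dose of an anchor drug with five library-drug doses (not always all listed) in √10 steps. After 5 days, nuclei were stained in a one-step fixation (final 0.05% Triton X-100, 1% formaldehyde, 1 ug/ml Hoechst) and counted on 4× images, and relative viability is the treated-to-vehicle nuclei ratio, as the median of duplicate plates.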

[2] = compound: NCC(=O)Nc1ccc(-n2nc(C(F)(F)F)cc2-c2ccc3c(ccc4ccccc43)c2)cc1 + CC1(C)CCC(c2ccc(Cl)cc2)=C(CN2CCN(c3ccc(C(=O)NS(=O)(=O)c4ccc(N[C@H](CCN5CCOCC5)CSc5ccccc5)c(S(=O)(=O)C(F)(F)F)c4)cc3)CC2)C1 [Navitoclax] (partner 0.5 µM)
Summary of the method: as §1

kb NB 142-70 + OSI-027 = compound: C1CSC2=C(C(=O)N1)SC3=C2C=C(C=C3)O [kb NB 142-70] + COc1cccc2cc(-c3nc([C@H]4CC[C@H](C(=O)O)CC4)n4ncnc(N)c34)[nH]c12 [OSI-027] (partner 0.5 µM)
Summary of the method: as §1

[3] = compound: NCC(=O)Nc1ccc(-n2nc(C(F)(F)F)cc2-c2ccc3c(ccc4ccccc43)c2)cc1 + C[C@]1(O)C[C@@H](c2nc(-c3ccc4ccc(-c5ccccc5)nc4c3)c3c(N)nccn32)C1 [Linsitinib] (partner 1 µM)
Summary of the method: as §1

Cell Line	relative viability ([1]; first compound 0.02 µM)	relative viability ([1]; first compound 0.06325 µM)	relative viability ([1]; first compound 0.2 µM)	relative viability ([1]; first compound 0.6325 µM)	relative viability ([1]; first compound 2 µM)	relative viability ([2]; first compound 0.02 µM)	relative viability ([2]; first compound 0.06325 µM)	relative viability ([2]; first compound 0.2 µM)	relative viability ([2]; first compound 0.6325 µM)	relative viability ([2]; first compound 2 µM)	relative viability (kb NB 142-70 + OSI-027; first compound 0.1 µM)	relative viability (kb NB 142-70 + OSI-027; first compound 1 µM)	relative viability (kb NB 142-70 + OSI-027; first compound 3.162 µM)	relative viability ([3]; first compound 0.02 µM)	relative viability ([3]; first compound 0.06325 µM)	relative viability ([3]; first compound 0.2 µM)	relative viability ([3]; first compound 0.6325 µM)	relative viability ([3]; first compound 2 µM)
LXF-289	0.868	0.583	0.762	0.753	0.798	0.918	0.977	0.943	0.954	0.861	0.737	0.695	0.681	0.924	0.995	0.989	0.985	0.901
NCI-H23	0.436	0.511	0.557	0.489	0.424	0.821	0.847	0.801	0.903	0.855	0.632	0.572	0.412	0.484	0.582	0.662	0.476	0.552
NCI-H322M	0.516	0.515	0.521	0.523	0.483	1.18	1.18	1.34	1.18	1.1	0.489	0.551	0.498	1.04	0.916	0.924	0.884	0.976
NCI-H441	0.469	0.441	0.469	0.366	0.575	0.521	0.577	0.654	0.627	0.539	0.556	0.58	0.277	0.634	0.486	0.509	0.657	0.668
NCI-H460	0.406	0.409	0.343	0.382	0.203	1.17	1.11	1.13	1.07	1.06	0.677	0.576	0.315	0.823	0.757	0.855	0.717	0.738
NCI-H520	0.351	0.265	0.323	0.277	0.277	0.979	1.17	1.34	1.05	1.08	0.262	0.226	0.25	1.02	0.904	1.07	0.91	1.13
NCI-H596	0.412	0.458	0.425	0.404	0.407	0.593	0.968	1.04	1.1	0.841	0.931	0.773	0.509	1.05	1.06	0.989	1.02	1.04
NCI-H647		0.479	0.548	0.406	0.496	1.02	1.02	1.23	1.03	1.01	0.575	0.568	0.601	1.23	1.25	1.12	1.31	0.915
NCI-H727	0.427	0.45	0.406	0.362	0.533	0.464	0.568	0.52	0.474	0.469	0.716	0.583	0.67	0.297	0.275	0.377	0.352	0.493
NCI-H838	0.474	0.441	0.5	0.432	0.45	1.19	1.12	1.34	1	1	0.369	0.386	0.331	1.03	1.01	1.1	0.925	0.881
NCI-H1355	0.388	0.491	0.339	0.411	0.552	0.921	0.895	1	0.999	0.978	0.44	0.38	0.378	0.769	0.855	0.849	0.867	0.82
NCI-H1395	0.648	0.641	0.581	0.563	0.642	1.12	1.16	1.16	1.11	1.22	0.674	0.757	0.638	0.997	0.986	1.15	1.06	1.18
NCI-H1437	0.542	0.411	0.421	0.523	0.456	1.08	1.12	1.11	1.12	1.11	0.908	0.968	0.921	0.944	1.05	1.07	1.1	1.02
NCI-H1651	0.58	0.591	0.592	0.467	0.513	1.06	1.11	1.13	0.998	1.01	0.725	0.657	0.471	0.945	1.05	0.963	1.01	1.01
NCI-H1666	0.554	0.424	0.437	0.505	0.404	1.14	0.788	1.11	0.913	1.01	0.786	0.875	0.875	0.703	0.993	0.861	0.912	0.844
NCI-H1734	0.451	0.462	0.464	0.43	0.474	0.889	0.868	0.91	0.787	0.787	0.584	0.509	0.396	0.916	0.856	0.988	0.823	0.925
NCI-H1755	0.384	0.487	0.454	0.435	0.479	1.03	1.04	1.03	1.03	0.991	0.741	0.722	0.737	1.08	1.01	0.98	0.991	0.995
NCI-H1792	0.244	0.319	0.277	0.315	0.344	0.694	0.722	0.617	0.693	0.617	0.705	0.684	0.912	0.507	0.647	0.549	0.625	0.552

Cell Line	relative viability ([1]; first compound 0.02 µM)	relative viability ([1]; first compound 0.06325 µM)	relative viability ([1]; first compound 0.2 µM)	relative viability ([1]; first compound 0.6325 µM)	relative viability ([1]; first compound 2 µM)	relative viability ([2]; first compound 0.02 µM)	relative viability ([2]; first compound 0.06325 µM)	relative viability ([2]; first compound 0.2 µM)	relative viability ([2]; first compound 0.6325 µM)	relative viability ([2]; first compound 2 µM)	relative viability (kb NB 142-70 + OSI-027; first compound 0.1 µM)	relative viability (kb NB 142-70 + OSI-027; first compound 1 µM)	relative viability (kb NB 142-70 + OSI-027; first compound 3.162 µM)	relative viability ([3]; first compound 0.02 µM)	relative viability ([3]; first compound 0.06325 µM)	relative viability ([3]; first compound 0.2 µM)	relative viability ([3]; first compound 0.6325 µM)	relative viability ([3]; first compound 2 µM)
NCI-H1793	0.263	0.401	0.343	0.455	0.349	0.529	0.446	0.395	0.411	0.416	0.34	0.311	0.294	0.826	0.799	0.893	0.966	0.962
NCI-H1915	0.79	1.05	0.922	0.914	0.999	0.771	0.804	0.812	0.767	0.803	0.648	0.619	0.396	1.05	1.07	1.17	1.09	1.1
NCI-H1944	0.349	0.359	0.326	0.35	0.331	1.06	1.08	1.05	1.04	1.07	0.386	0.443	0.426	1.14	1.21	1.16	1.11	1.3
NCI-H1975	0.273	0.307	0.292	0.335	0.307	1.04	1.1	1.2	1.11	0.997	0.808	0.741	0.597	0.927	0.92	0.973	0.983	0.921
NCI-H1993	0.759	0.773	0.738	0.838	0.861	0.945	1.06	1.02	1	0.956	0.51	0.578	0.479	0.81	0.767	0.718	0.843	0.724
NCI-H2009	0.734	0.906	0.819	0.86	0.967	1.12	1.15	1.27	1.11	1.13	0.678	0.68	0.395	1.22	1.18	1.23	1.21	1.12
NCI-H2023	0.229	0.232	0.201	0.207	0.242	1.05	1.12	1.01	1	1.01	0.485	0.417	0.258	0.805	0.682	0.712	0.623	0.707
NCI-H2085	0.483	0.443	0.436	0.42	0.469	1.06	1.16	1.28	1.17	1.08	0.878	0.876	0.388	0.964	0.943	1.03	1.03	0.932
NCI-H2087	0.77	0.709	0.723	0.801	0.848	0.849	1.11	0.939	0.969	1.03	0.532	0.677	0.35	0.867	1.02	1.03	1.1	0.988
NCI-H2126	0.47	0.51	0.45	0.532	0.502	0.866	0.865	0.851	0.876	0.852	0.791	0.629	0.674	0.7	0.745	0.687	0.664	0.763
NCI-H2228	0.473	0.471	0.355	0.299	0.481	1.14	1.16	0.918	0.976	0.809	0.575	0.483	0.317	0.872	0.676	0.707	0.603	0.79
NCI-H2347	0.831	0.668	0.706	0.738	0.711	0.771	0.878	1	0.906	0.833	0.461	0.416	0.384	0.953	0.98	1.04	1.07	1.01
NCI-H2405	0.415	0.494	0.499	0.375	0.481	0.848	1	0.941	0.913	0.969	0.652	0.615	0.546	0.91	1.01	0.923	0.921	0.971
NCI-H3122	0.696	0.592	0.532	0.571	0.628	1.04	1.01	1.03	1.01	0.984	0.922	0.919	0.726	1.06	1.09	1.03	1.04	1.04
PC-3 [JPC-3]	0.645	0.855	0.739	0.745	0.88	0.765	0.842	0.718	0.84	0.79	0.763	0.835	0.737	0.957	0.977	0.992	0.963	0.961
PC-14	0.606	0.702	0.704	0.67	0.62	1.1	0.979	1.15	0.917	1.05	0.754	0.962	0.609	1.07	0.917	1.05	0.936	0.993
RERF-LC-KJ	0.568	0.62	0.663	0.66	0.517	1.04	1.24	1.08	0.715	0.842	0.566	0.643	0.593	0.923	0.84	0.9	0.857	0.982
